Results as given in publication PMC6985712 (Antimicrobial Agents and Chemotherapy, 2020).
Read-outs that look alike come from different tables or passages of the source.

Experiments:
KPC-2 [1] = biological target: T1, KPC-2 (Klebsiella pneumoniae, UniProt Q9F663); test: k2/K inactivation constant, reporter substrate method; type: biochemical
Method: Inactivation kinetic parameters were determined by using the reporter substrate method for the slow tight-binding inhibitor kinetic scheme ([38]). E + I ↔K EI ↔k−2k2 EI*
(§1) Protein was quickly mixed with 100 μM nitrocefin and various concentrations of BLI in reaction buffer, and the absorbance at 490 nm was measured immediately every 2 s for 180 s on a SpectraMax plate reader (Molecular Devices, San Jose, CA) at 37°C. The resulting progression curves of OD490 versus time at various BLI concentrations were imported into Prism software (GraphPad, San Diego, CA), and pseudo first-order rate constants kobs were calculated by using the following equation: P = Vs ⋅ (1 – e^–^k^obs ⋅ ^t)/kobs, where Vs is the enzyme NCF cleavage rate in the absence of BLI.

ADC-7, KPC-2, and SHV-1 = test system: ADC-7, KPC-2, and SHV-1; parameters: method as in PMID 26729491, PMID 26729496; conditions: cited from earlier work
KPC-2 [2] = biological target: T1, KPC-2; test: Stability of inhibitor after incubation with KPC-2, LC/MS; type: biochemical; conditions: for degradation/hydrolysis of inhibitor by KPC-2: 1 µM inhibitor and 1 µM KPC-2, 37 °C, reaction buffer, 18 hours, LC/MS
AmpC [3] = biological target: T2, AmpC (Enterobacter cloacae, UniProt P05364); test: koff of enzyme activity recovery, jump dilution method; type: biochemical; conditions: calculated using k2/K and koff
T2 construct: His tag; purchased Emerald Biostructures (Bainbridge Island, WA)
Method: (§2) After appropriate dilution, 100 μM NCF was added to the reaction mixture, and absorbance at 490 nm was recorded every 10 s using a plate reader. The reaction without the addition of BLI was also recorded and used to calculate uninhibited enzyme velocity Vs.
(§3) Purified enzyme at 1 μM in reaction buffer was mixed with BLIs at an 8-fold higher concentration than its stoichiometry ratio (determined in preliminary stoichiometry experiments). After 30 min incubation at 37°C, the reaction mixture was diluted from 100- to 30,000-fold depending on the enzyme in reaction buffer, and 100 μl of diluted enzyme was mixed with 100 μl of 400 μM NCF in reaction buffer. The absorbance at 490 nm was recorded every minute during 4 h at 37°C.

BKC-1 [4] = biological target: T3, BKC-1 (Klebsiella pneumoniae, UniProt A0A0F6QEY8); test: as above; type: biochemical; conditions: calculated using k2/K and koff
Method: as §2, §3

KPC-3 [5] = biological target: T4, KPC-3 (Klebsiella pneumoniae, UniProt Q9F663, H272Y); test: as above; type: biochemical
Method: as §2, §3

CTX-M-15 [6] = biological target: T5, CTX-M-15 (Escherichia coli, UniProt Q9EXV5); test: as above; type: biochemical; conditions: calculated using k2/K and koff
T5 construct: His tag; purchased Emerald Biostructures (Bainbridge Island, WA)
Method: as §2, §3

FRI-1 [7] = biological target: T6, FRI-1 (Enterobacter cloacae, UniProt A0A0M5L4T8); test: as above; type: biochemical; conditions: calculated using k2/K and koff
Method: as §2, §3

KPC-2 [8] = biological target: T1, KPC-2; test: as above; type: biochemical; conditions: calculated using k2/K and koff
Method: as §2, §3

VIM-1 = biological target: T7, VIM-1 (Pseudomonas aeruginosa, UniProt A0A0F7KYQ8); test: Kiapp determination with nitrocefin (method of Waley); type: biochemical
T7 construct: His tag; purchased Emerald Biostructures (Bainbridge Island, WA)
Method: (§4) The protein was mixed with various concentrations of inhibitors in 50 mM sodium phosphate (pH 7.0) and 0.1 mg/ml of bovine serum albumin buffer (reaction buffer), followed by incubation for 10 min at 37°C. Next, 50 μM nitrocefin (NCF; 10 μM for SHV-12 and 25 μM for BKC-1) was added, and substrate cleavage profiles were recorded at 490 nm every 10 s for 10 min. […] Kiapp values were calculated by method of Waley ([24]).

OXA-23 = OXA-23 (Acinetobacter baumannii, UniProt Q9L4P2); test: as above; type: biochemical; conditions: recombinant His-tagged enzyme; 10 min incubation at 37°C; 50 μM NCF
Method: as §4

AmpC [9] = biological target: T2, AmpC; test: as above; type: biochemical; conditions: recombinant His-tagged enzyme; 10 min incubation at 37°C; 50 μM NCF
Method: as §4

BKC-1 [10] = biological target: T3, BKC-1; test: as above; type: biochemical; conditions: recombinant His-tagged enzyme; 10 min incubation at 37°C; 25 μM NCF
Method: as §4

OXA-48 = biological target: T8, OXA-48 (Klebsiella pneumoniae, UniProt Q6XEC0); test: as above; type: biochemical; conditions: recombinant His-tagged enzyme; 10 min incubation at 37°C; 50 μM NCF
T8 construct: His tag; purchased Emerald Biostructures (Bainbridge Island, WA)
Method: as §4

KPC-3 [11] = biological target: T4, KPC-3; test: as above; type: biochemical; conditions: recombinant His-tagged enzyme; 10 min incubation at 37°C; 50 μM NCF
Method: as §4

CTX-M-15 [12] = biological target: T5, CTX-M-15; test: as above; type: biochemical; conditions: recombinant His-tagged enzyme; 10 min incubation at 37°C; 50 μM NCF
Method: as §4

NDM-1 = biological target: T9, NDM-1 (Klebsiella pneumoniae, UniProt C7C422); test: as above; type: biochemical
T9 construct: His tag; purchased Emerald Biostructures (Bainbridge Island, WA)
Method: as §4

CTX-M-14 = biological target: T10, CTX-M-14 (Escherichia coli, UniProt Q9L5C7); test: as above; type: biochemical; conditions: recombinant His-tagged enzyme; 10 min incubation at 37°C; 50 μM NCF
T10 construct: His tag; purchased Emerald Biostructures (Bainbridge Island, WA)
Method: as §4

SHV-12 [13] = biological target: T11, SHV-12 (Klebsiella pneumoniae, UniProt P0AD64, E235K/G234S/L31Q); test: as above; type: biochemical; conditions: recombinant His-tagged enzyme; 10 min incubation at 37°C; 10 μM NCF
T11 construct: His tag; purchased Emerald Biostructures (Bainbridge Island, WA)
Method: as §4

FRI-1 [14] = biological target: T6, FRI-1; test: as above; type: biochemical; conditions: recombinant His-tagged enzyme; 10 min incubation at 37°C; 50 μM NCF
Method: as §4

KPC-2 [15] = biological target: T1, KPC-2; test: as above; type: biochemical; conditions: recombinant His-tagged enzyme; 10 min incubation at 37°C; 50 μM NCF
Method: as §4

SHV-12 [16] = biological target: T11, SHV-12; test: Inactivation kinetic profile, reporter substrate method; type: biochemical; conditions: precluded k2/K calculation
Method: as §1

TEM-43 = TEM-43 (Escherichia coli, UniProt P62593, E102K/M180T/R162H); test: as above; type: biochemical; conditions: precluded k2/K calculation
Method: as §1

SME-2 [17] = biological target: T12, SME-2 (Serratia marcescens, UniProt P52682, V207Q); test: koff of enzyme activity recovery, jump dilution method; type: biochemical, S. marcescens
Method: as §2, §3

SME-2 [18] = biological target: T12, SME-2; test: Kiapp determination with nitrocefin (method of Waley); type: biochemical, S. marcescens; conditions: recombinant His-tagged enzyme; 10 min incubation at 37°C; 50 μM NCF
Method: as §4

[19] = 1.2 nM KPC-2, 100 μM NCF reporter substrate
[20] = recombinant His-tagged enzyme, 10 min incubation at 37°C, 50 μM NCF

O=Cc1ccccc1B(O)O [2-formylphenylboronic acid]
KPC-2 inactivation kinetic profile (KPC-2 [1]; [19]): linear KPC-2 inactivation profile

O=C(Cc1cccs1)N[C@@H](Cn1cc(C(=O)O)nn1)B(O)O [S02030]
potency (in words) (ADC-7, KPC-2, and SHV-1): nanomolar potency

Cc1cccc(B(O)O)c1 [m-tolylboronic acid]
KPC-2 inactivation kinetic profile (KPC-2 [1]): linear KPC-2 inactivation profile

C[C@]1(Cn2ccnn2)[C@H](C(=O)O)N2C(=O)C[C@H]2S1(=O)=O [tazobactam, reference compound]
degradation of inhibitor by KPC-2 (KPC-2 [2]; same conditions, in 1 hour (data not shown)): completely degraded
KPC-2 inactivation kinetic profile (KPC-2 [1]; [19]): progressive enzyme activity inactivation

O=C(O)C[C@@H]1CC[C@H](NC(=O)Cc2cccs2)B(O)O1 [vaborbactam]
degradation/hydrolysis of inhibitor by KPC-2 (KPC-2 [2]): no degradation
degradation/hydrolysis of inhibitor by KPC-2 (KPC-2 [2]; listed as Vaborbactam): not hydrolyzed
Kd (AmpC [3]): 220 nM
Kd (BKC-1 [4]): 33 nM
Kd (KPC-3 [5]): 4.4 nM
Kd (CTX-M-15 [6]): 40 nM
Kd (FRI-1 [7]): 509 nM
Kd (KPC-2 [8]): 7.8 nM
inhibition of enzyme (in words) (VIM-1; class B metalloenzyme): No inhibition
Ki (VIM-1; [20]): > 160 µM
Ki (OXA-23): 66 ± 11 µM
Ki (AmpC [9]): 35 ± 15 nM
Ki (BKC-1 [10]): 18 ± 2 nM
Ki (OXA-48): 14 ± 5 µM
Ki (KPC-3 [11]): 50 ± 16 nM
Ki (CTX-M-15 [12]): 30 ± 4 nM
inhibition of enzyme (in words) (NDM-1; class B metalloenzyme): No inhibition
Ki (NDM-1; [20]): > 160 µM
Ki (CTX-M-14): 33 ± 13 nM
Ki (SHV-12 [13]): 21 ± 4 nM
Ki (FRI-1 [14]): 170 ± 60 nM
Ki (KPC-2 [15]): 56 ± 15 nM
inactivation kinetic profile (SHV-12 [16]): linear inactivation profiles
inactivation kinetic profile (TEM-43): linear inactivation profiles
Kd (SME-2 [17]): 47 nM
KPC-2 inactivation kinetic profile (KPC-2 [1]; [19]): slow onset of inhibition and nonlinear reaction profiles
Ki (SME-2 [18]): 42 ± 5 nM
